From PubChem BioAssay (NCI) come the findings set out here.

Experiment in all cases: DTP human tumour cell line panel, 48 h
Experiment [1] has as its system HOP-92 NSCLC.
Experiment [2] relates to COLO 205 colon.
Experiment [3] concerns ACHN renal.
Experiment [4] has as its system MCF7 breast.
Experiment [5] concerns NCI-H460 lung.
Experiment [6] deals with UACC-257 melanoma.
Experiment [7] deals with OVCAR-4 ovarian.
In experiment [8] the test system is NCI/ADR-RES ovarian.
The test system of experiment [9] is NCI-H226 lung.
In experiment [10] the test system is MDA-MB-435.

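Cells were grown in 96-well plates and exposed to each compound for 48 hours at five concentrations; endpoints were interpolated linearly between bracketing concentrations, or set to the highest concentration if not reached. Here, GI50 denotes the concentration required for 50% inhibition of growth. At the TGI there is no net growth.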

In the case of `COc1ccc2ncnc(Nc3ccc(OCc4ccccc4)cc3)c2c1`, the GI50 in experiment [1] is 2.92 µM; in experiment [2], 7.96 µM; in experiment [3], 5.88 µM; in [4], 7.49 µM; in [5], 7.58 µM; in [6], 7.47 µM. For the same compound, the GI50 was 7.38 µM in [7], 7.56 µM in experiment [8], 8.1 µM in [9] and 7.22 µM in [10]. The TGI in experiment [1] was 16.9 µM; in [2], greater than 25 µM; in experiment [3], greater than 25 µM; in experiment [4], greater than 25 µM; in experiment [5], greater than 25 µM; in experiment [6], greater than 25 µM. Besides, the TGI in experiment [7] was greater than 25 µM; in experiment [8], greater than 25 µM; in [9], greater than 25 µM; in experiment [10], greater than 21.1 µM.
Regarding `O=C(NC1CCCCC1)NS(=O)(=O)c1ccc(N2N=C3c4ccccc4CC3C2c2ccc(Cl)cc2)cc1` (stereo not given), the GI50 in [1] is 10.8 µM; in [2], 11.7 µM; in experiment [3], 13.4 µM; in [4], 2.52 µM; in experiment [5] it was 4.45 µM; in [6], 19.7 µM. Further, the GI50 in experiment [7] is 38.5 µM; in experiment [8], 20.6 µM; in experiment [9] it was 19.8 µM; in [10] it was 18.5 µM. In addition, the TGI in [1] was found to be 31.5 µM; in experiment [2] it was 34 µM; in [3], 31.9 µM; in experiment [4], 22.2 µM; in [5] it was 30.6 µM; in experiment [6], 53 µM. In addition, the TGI in experiment [7] is greater than 100 µM; in experiment [8] it was 69.6 µM; in [9] it was 49.1 µM; in [10] it was 50.3 µM.
For the compound `CC(C)[C@@H]1NC(=O)[C@]2(C)CSC(=N2)c2ccnc(c2)CNC(=O)C[C@@H](/C=C/CCS)OC1=O`, the GI50 was 0.363 µM in experiment [1]; 0.717 µM in experiment [2]; 2.46 µM in [3]; 0.708 µM in [4]; less than 0.0253 µM in [5]; 0.0376 µM in experiment [6]. The GI50 in experiment [7] was 1.41 µM; in experiment [8], 2.46 µM; in [9] it was 0.458 µM; in experiment [10], 0.111 µM. In addition, the TGI in experiment [1] is 2.81 µM; in [2], 2.41 µM; in experiment [3] it was 14.9 µM; in experiment [4], greater than 100 µM; in experiment [5] it was greater than 100 µM; in experiment [6], 0.526 µM. The TGI in experiment [7] is greater than 100 µM; in [8], greater than 61.6 µM; in [9], 12.4 µM; in experiment [10], 6.13 µM.
Turning to `O=[N+]([O-])c1cc([N+](=O)[O-])c(C(F)(F)F)cc1NN=C(c1ccc(O)cc1)c1ccc(O)cc1`, the GI50 in experiment [1] was 3.05 µM; in experiment [2] it was 2.15 µM; in experiment [3] it was 2.41 µM; in experiment [4] it was 2.63 µM; in [5], 2.05 µM; in [6], 4.29 µM. In addition, the GI50 is 3.25 µM in experiment [7], 4.44 µM in experiment [8], 4.03 µM in [9] and 1.92 µM in experiment [10]. The TGI in experiment [1] was determined as 18.8 µM; in [2] it was 5.33 µM; in experiment [3], 8.23 µM; in [4], 7.73 µM; in experiment [5], 5.13 µM; in experiment [6], 17.5 µM. For the same compound, the TGI in experiment [7] was determined as 19.2 µM; in experiment [8] it was 65.4 µM; in experiment [9], 23.7 µM; in experiment [10], 4.92 µM.
Consider `CN1CCN(c2ccc(Nc3ncc(Cl)c(NC[C@@H]4CCCO4)n3)cc2)CC1`, for which the GI50 was 1.68 µM in experiment [1]; 0.547 µM in experiment [2]; 0.973 µM in experiment [3]; 0.683 µM in experiment [4]; 0.573 µM in experiment [5]; 6.46 µM in experiment [6]. Also, the GI50 in [7] was 3.03 µM; in experiment [8], 3.15 µM; in experiment [9], 0.266 µM; in experiment [10], 1.64 µM. Besides, the TGI in [1] was 6.44 µM; in [2], 2.96 µM; in experiment [3], greater than 100 µM; in experiment [4], 26.9 µM; in experiment [5] it was 6.55 µM; in experiment [6], 32.6 µM. The TGI was 81.7 µM in experiment [7], greater than 100 µM in [8], 6.47 µM in [9] and 15.3 µM in experiment [10].
Turning to `C[C@@H]1CC[C@H]2C(C)(C)[C@H]3C[C@@]12CC[C@@]3(C)O`, the TGI in [1] is greater than 100 µM; in experiment [2] it was greater than 100 µM; in [3], greater than 100 µM; in [4] it was greater than 100 µM; in [5], 34.9 µM; in experiment [6] it was greater than 100 µM. Further, the TGI in experiment [7], in [8], in [9] and in experiment [10] was greater than 100 µM each time.
For the compound `CC(=O)OCc1ccc2c(c1)C(O)NC(=O)O2` (stereo not given), the TGI in experiment [1], in experiment [2], in experiment [3], in experiment [4], in [5] and in experiment [6] was greater than 100 µM in each case. Besides, the TGI in experiment [7], in experiment [8], in experiment [9] and in experiment [10] was greater than 100 µM each time.
With `CC(=C(c1ccc(OCCN2CCCCC2)cc1)c1ccc(OCCN2CCCCC2)cc1)c1ccc(Cl)cc1`, the GI50 in experiment [1] was 0.343 µM; in [2], 0.46 µM; in experiment [3] it was 0.434 µM; in experiment [4] it was 0.297 µM; in experiment [5], 0.452 µM; in experiment [6], 0.454 µM. Further, the GI50 in [7] was 0.46 µM; in [8] it was 0.446 µM; in experiment [9] it was 0.457 µM; in [10], 0.416 µM. Besides, the TGI in experiment [1] is 0.711 µM; in [2], 0.921 µM; in experiment [3] it was 0.779 µM; in [4], 0.682 µM; in experiment [5], 0.844 µM; in [6], 0.884 µM. In addition, the TGI in experiment [7] came to 0.893 µM; in experiment [8], 0.858 µM; in experiment [9] it was 0.962 µM; in [10] it was 0.777 µM.
Turning to `CC(=O)OC1(C)N=NC2(CCCCC2)O1` (stereo not given), the TGI in experiment [1], in [2], in experiment [3], in [4], in experiment [5] and in experiment [6] was greater than 100 µM throughout. Also, the TGI in experiment [7], in experiment [8], in [9] and in experiment [10] was greater than 100 µM throughout.
In the case of `CC(C)(C)[Si](C)(C)OC1[C@@H](O[Si](C)(C)C(C)(C)C)[C@@H](CNC(=O)NC(=O)C(F)(F)F)O[C@H]1n1cnc2c(NC(=O)Nc3ccccc3)ncnc21` (stereo not given in full), the GI50 is 5.2 µM in experiment [1]; 6.03 µM in [2]; 5.54 µM in experiment [3]; 2.05 µM in experiment [4]; 6.39 µM in experiment [5]; 7.19 µM in experiment [6]. Besides, the GI50 in experiment [7] was 3.98 µM; in experiment [8] it was 7.56 µM; in experiment [9], 4.61 µM; in experiment [10], 5.52 µM. Moreover, the TGI was 11.8 µM in [1]; 12.8 µM in [2]; 11.5 µM in experiment [3]; 8.07 µM in experiment [4]; 15.7 µM in [5]; 15 µM in experiment [6]. In addition, the TGI in experiment [7] worked out at 10.9 µM; in [8], 14.7 µM; in experiment [9] it was 11.8 µM; in [10], 16.4 µM.
Take `Cc1ccc(-c2nc(N3CCNCC3)c3oc(-c4ccc(C)cc4)nc3n2)cc1`: the GI50 in [1] was 11.5 µM; in experiment [2], 1.98 µM; in experiment [3] it was 2.23 µM; in experiment [4], 1.66 µM; in experiment [5], 2.03 µM; in experiment [6], greater than 45.7 µM. Also, the GI50 is 2.22 µM in [7], 2 µM in experiment [8], greater than 44.1 µM in experiment [9] and 2.3 µM in experiment [10]. Further, the concentration for total growth inhibition (TGI) in experiment [1] is 26.5 µM; in [2] it was 4.11 µM; in experiment [3], 4.78 µM; in experiment [4], 3.53 µM; in [5], 4.41 µM; in experiment [6] it was greater than 65.9 µM. Moreover, the TGI in experiment [7] is 10.6 µM; in [8], 3.81 µM; in [9] it was greater than 64.7 µM; in experiment [10] it was 6.22 µM.
On to `O=C1NC(=NCc2ccccc2)S/C1=C\c1ccc2ncccc2c1`, for which the GI50 in [1], in experiment [2], in [3], in [4], in experiment [5] and in [6] was greater than 25 µM each time. For the same compound, the GI50 in experiment [7], in experiment [8], in experiment [9] and in experiment [10] was greater than 25 µM each time. Moreover, the TGI in experiment [1], in [2], in experiment [3], in [4], in [5] and in experiment [6] was greater than 25 µM each time. The TGI in [7], in [8], in experiment [9] and in [10] was greater than 25 µM each time.

What is called GI50 is the concentration at which growth is held to half of that of the control. The term TGI denotes the concentration giving total growth inhibition.
